One data set deals with S. aureus 38. Description: Microdilution MBC of released fibers versus free compound. The class given is cell-based, Staphylococcus aureus. As for the experimental part: To confirm their antibacterial efficacy, the released fibers from day 1 and day 9 were subjected to a standard microdilution protocol.
To further investigate their antibacterial activity, the released fibers from hydrogel 11 were tested against S. aureus 38. The solutions sampled from day 1 and day 9 were adjusted to obtained final concentrations of […]. Then, 100 μL of these solutions were transferred to a 96 well plate. […] 100 μL of each of these peptide solutions was also transferred to a 96 well plate.
Subsequently, 100 μL of a bacteria solution, adjusted to 10^6 CFUs/mL was added to each well. Two controls were used: one containing 100 μL of LB and 100 μL of PBS, and the other containing 100 μL of bacteria solution and 100 μL of PBS. The plate was then incubated at 37° C. for 24 hours. The following day, 20 μL solution from each well was subjected to a serial dilution then transferred onto agar plates followed by incubation at 37° C. for another 24 hours. MBC value was determined as the lowest concentration that inhibited S. aureus growth on the agar plate.
Background: In broth dilution the organism is exposed to a series of concentrations in liquid medium.

A short description of data set [1]: NO release from hydrogel 4 quantified with Griess reagent. Format: physicochemical. As for the experimental part:
NO release from hydrogel 4 was quantified using the Griess reagent, which is an indirect method that measures collected nitrite as the primary degradation product of NO. Nitrobenzene-appended anthranilamide-based hydrogel 4 was pre-formed in an aluminium covered vial at 1% w/v (1 mL). Milli-Q water (1 mL) was carefully cast on top of the hydrogel, which was subsequently exposed to UV or blue light irradiation. At certain time points (0, 5, 15, 30, 60, and 120 min), the entire upper solutions were carefully removed and allowed to react with Griess reagent, according to the indication of the NO assay kit (Promega), to provide an azo compound that is responsible for providing the colorimetric assay. Subsequently, 1 mL of fresh Milli-Q water was immediately added to the top of hydrogel 4 for continuing the release.
Due to the strong absorbance of hydrogel 4 in the UV range, NO release was triggered by using a UV lamp (λ=356 nm). The same volume of Milli-Q water was placed on top of hydrogel 4, which was irradiated with UV light for 2 hours. The entire solution, on top of the hydrogel, was removed and replaced with the same amount of Milli-Q water periodically. The resulting solutions were reacted with Griess reagent. Any NO generated during the experiment would react with oxygen to generate nitrite ion (NO2^−). The subsequent reaction between NO2^− with Griess reagent, which contains sulfanilamide and N-(1-naphthyl)ethylenediamine (NED), will form a bright pink azo-dye compound that can be quantified using UV-Vis spectroscopy, as shown in the below scheme: […]
(Griess reagent forms a coloured azo dye with nitrite.)

Data set [2] is described as follows: Hydrogel formation, vial inversion test (critical gel concentration). Format: physicochemical. Conditions: solvent switch.
The next data set relates to HEK 293T cells. The data set can be described thus: Cytotoxicity, Alamar Blue colorimetric assay. Format: cell-based. The protocol: Cytotoxicity measurements were performed using an Alamar Blue colorimetric assay. Each experiment was repeated at least three times. Cells were passaged using standard cell culture procedures. Cells were detached with trypsin and centrifuged (1000 rpm for 3 min). The supernatant was removed and the cells re-suspended in Dulbecco's Modified Eagle Medium (DMEM) at a concentration of 100,000 cells per mL. Cells were seeded at a concentration of 6,000 cells per well. For cytotoxicity measurements, […] of hydrogel made from short-peptide 4 (at 1% w/v and 2% w/v) and short peptides 11, 12, 13, and 16 (at 0.3, 0.6, and 1.0% w/v) were added in triplicate to a 96-well plate and allowed to set overnight. Surrounding wells were supplemented with water to ensure hydration of the gels. Gels were then incubated for 24 h with DMEM. Cells were seeded atop the hydrogels and incubated for 24 hours, before […] of Alamar Blue was added to the wells, followed by further incubation for 4 h. Control wells included cell-free gels, no hydrogels and a negative control of 15% (v/v) DMSO. The absorbances at 570 nm and 596 nm were recorded using a BioRad Benchmark plate reader.

Data set [3] is described as follows: Hydrogel formation, vial inversion test (critical gel concentration). On the set-up: key: OG: opaque gel; P: precipitate. The class given is physicochemical. Conditions: solvent switch. The text has this: The simplest method to determine whether a suitable hydrogel has formed is to use the vial inversion test. Through visual inspection, a material can be categorised as a solution, viscous solution, partial gel, or solid-like gel. A stable hydrogel needs to be able to hold its weight and/or maintain its shape during this assessment.
The critical gel concentration (CGC) is defined as the minimum mass of a short peptide required to provide a self-supporting hydrogel per unit volume in the vial inversion test (measured as % w/v).
Pre-weighed samples of short peptide 4 were prepared in aluminium-covered glass vials and Milli-Q water and 2 equivalents of NaOH (1.0 M) were added to make up concentrations of 1% w/v. The resulting suspensions were vortexed for 5 minutes to provide clear yellow solutions with pH 11.
To create a high ionic strength environment, 1 equivalent of NaCl was added and the vial was left to stand without disturbance for 3 hours at room temperature. Meanwhile, as an attempt to form a hydrogel by lowering the pH, 2 equivalents of GdL were added to a high pH solution of 4 followed by gentle mixing. These vials were inverted and allowed to stand overnight to confirm the hydrogel formation.
The formation of hydrogel 4 via the solvent switch method was conducted by dissolving short peptide 4, in an aluminium covered glass vial, with either 50% methanol, ethanol, or dimethyl sulfoxide (DMSO). Respective amounts of Mili-Q water were added to make up concentrations of 1% w/v.
In addition, gelation time was defined as the time (hours) required for 1% w/v of short peptide 4 to form a hydrogel which can be turned upside down without collapsing.
Pre-weighed samples of short peptides 10a-17a, 18, and 19 were prepared in glass vials with 10 mm internal diameter, and Milli-Q water was added to make up concentrations of 1% w/v. The resulting suspensions of short peptides 13, 18, and 19 (as ammonium or guanidinium salts) were slowly warmed until all solid had completely dissolved. GdL (1.5 to 2.0 equivalents) was added to the suspension of short peptides 10a-17a, before heat was applied. To create a high ionic strength environment, 1-5 equivalents of NaCl was added to the viscous solution of 10a-17a to make the total volume up to 1 mL, followed by gentle mixing, and the vial was left to stand without disturbance for 3 hours at room temperature. Subsequently, these vials were inverted and allowed to stand overnight to confirm hydrogel formation.

As to `NCCCNC(=O)[C@H](Cc1ccccc1)NC(=O)c1ccccc1NC(=O)c1ccc2ccccc2c1` [Compound 11], the MBC in the data set with S. aureus 38 (Staphylococcus aureus, 38, fibers in solution released from hydrogel 11, S. aureus, 24 hours, read-out: minimum bactericidal concentration (MBC)) came out at 62 µM. Further, the bacteria reduction with S. aureus 38 (free compound (not hydrogel-formed) at 62 μM, S. aureus) was less than 1 Log10 CFU/mL.
Compound `O=C(Nc1ccccc1C(=O)N[C@@H](Cc1ccccc1)C(=O)N[C@@H](Cc1ccccc1)C(=O)O)c1ccc([N+](=O)[O-])c(C(F)(F)F)c1` [Compound 4, (2-(4-Nitro-3-(trifluoromethyl)benzamido)benzoyl)-L-phenylalanyl-L-phenylalanine] returned an NO detected in data set [1] (hydrogel 1% w/v, UV light (λ=356 nm), 5 minutes) of 1 µM. For the same compound, the NO generated in data set [1] (hydrogel 1% w/v, UV light (λ=356 nm), 30 minutes) worked out at 7 µM. In addition, the NO recovered in data set [1] (hydrogel 1% w/v, UV light, 2 hours) stood at 61%. Besides, the “irradiation time required to generate NO concentration that can kill E. coli” value in data set [1] (hydrogel 1% w/v, blue light) was 1 h. The “total NO recovered” value in data set [1] (hydrogel 1% w/v, blue light, 2 hours) was determined as 23%. Also, the “NO release in the absence of triggers” value in data set [1] (no UV or blue light) was “does not leach NO”. Moreover, the “Time (gelation time)” value in data set [2] (DMSO 5 % v/v) and in data set [2] (MeOH 5 % v/v) was “Immed” in each case. Besides, the cell viability result is recorded as “more than 90%” in the data set with HEK 293T cells (hydrogel 4 at 1% w/v, compared to the control) and “A similar result was observed” with HEK 293T cells (hydrogel 4 at 2% w/v). Besides, the “Remarks (gel state)” value is “P” in data set [3] (DMSO 5 % v/v); “OG” in data set [3] (DMSO 50 % v/v); “P” in data set [3] (EtOH 5 % v/v); “OG” in data set [3] (EtOH 50 % v/v); “P” in data set [3] (MeOH 5 % v/v); “OG” in data set [3] (MeOH 50 % v/v).

For the origin of these results see patent US20230123497A1, “NOVEL ANTIBACTERIAL HYDROGELS” (NewSouth Innovations Pty Limited, priority 2020, published 2023).
